Laboratory results taken from ChEMBL document CHEMBL1156733, “Structure-activity relationship studies on a series of piperazinebenzylalcohols and their ketone and amine analogs as melanocortin-4 receptor ligands” (Bioorg Med Chem Lett, 2008).
pIC50, pKi: −log10 of the molar value.

Experiments:
Melanocortin receptor 4 [1] = biological target: Melanocortin receptor 4 (Homo sapiens, UniProt P32245, D122A); assay: Binding affinity to human MC4 receptor Asp122Ala mutant
Homo sapiens = organism: Homo sapiens; assay: Selectivity for human MC4 receptor over human MC4 receptor Asp122Ala mutant
Melanocortin receptor 3 = Melanocortin receptor 3 (Homo sapiens, UniProt P41968); assay: Binding affinity to MC3 receptor
Melanocortin receptor 5 = Melanocortin receptor 5 (Homo sapiens, UniProt P33032); assay: Binding affinity to MC5 receptor
Melanocortin receptor 4 [2] = biological target: T1, Melanocortin receptor 4 (Homo sapiens, UniProt P32245); assay: Antagonist activity at human MC4 receptor expressed in cells assessed as inhibition of alpha-MSH-stimulated cAMP production; format: functional, cell-based
Melanocortin receptor 4 [3] = biological target: T1, Melanocortin receptor 4
[4] = system: Melanocortin receptor 1 (Homo sapiens); assay: Inhibition of human MC1 receptor at 10 uM
[5] = Plasma clearance in rat at 5 mg/kg, iv; format: ADME, organism-based; set-up: dose 5 mg/kg, route intravenous
[6] = Volume of distribution in rat at 5 mg/kg, iv; format: ADME, organism-based; set-up: dose 5 mg/kg, route intravenous; details: in vivo
[7] = Half life in rat at 5 mg/kg, iv; format: ADME, organism-based; set-up: dose 5 mg/kg, route intravenous; details: in vivo
Brain = assay: Drug level in rat brain rat at 5 mg/kg, iv; format: ADME, organism-based; set-up: dose 5 mg/kg, route intravenous; details: in vivo
[8] = Ratio of drug level in brain to plasma in rat at 5 mg/kg, iv after 1 hr; format: ADME, organism-based; set-up: dose 5 mg/kg, route intravenous
[9] = Oral bioavailability in rat at 10 mg/kg; format: ADME, organism-based; details: in vivo
[10] = AUC in rat at 10 mg/kg, po; format: ADME, organism-based; set-up: dose 10 mg/kg, route oral; details: plasma
[11] = Lipophilicity, log D of the compound; format: physicochemical; details: octanol/water
[12] = Metabolic stability assessed as intrinsic clearance in human liver microsomes; format: ADME, Microsome

Melanocortin receptor 3, sequence (P41968 whole entry): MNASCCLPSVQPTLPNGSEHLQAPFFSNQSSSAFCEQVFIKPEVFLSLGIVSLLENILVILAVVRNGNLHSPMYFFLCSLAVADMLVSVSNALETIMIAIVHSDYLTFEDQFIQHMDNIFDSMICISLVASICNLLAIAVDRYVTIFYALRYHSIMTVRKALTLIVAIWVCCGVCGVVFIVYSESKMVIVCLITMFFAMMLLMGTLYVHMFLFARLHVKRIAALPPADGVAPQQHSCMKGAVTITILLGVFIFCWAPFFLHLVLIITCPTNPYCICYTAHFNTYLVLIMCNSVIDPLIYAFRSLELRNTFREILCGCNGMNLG
Melanocortin receptor 4 (Homo sapiens, UniProt P32245, D122A), sequence (P32245 whole entry D122A): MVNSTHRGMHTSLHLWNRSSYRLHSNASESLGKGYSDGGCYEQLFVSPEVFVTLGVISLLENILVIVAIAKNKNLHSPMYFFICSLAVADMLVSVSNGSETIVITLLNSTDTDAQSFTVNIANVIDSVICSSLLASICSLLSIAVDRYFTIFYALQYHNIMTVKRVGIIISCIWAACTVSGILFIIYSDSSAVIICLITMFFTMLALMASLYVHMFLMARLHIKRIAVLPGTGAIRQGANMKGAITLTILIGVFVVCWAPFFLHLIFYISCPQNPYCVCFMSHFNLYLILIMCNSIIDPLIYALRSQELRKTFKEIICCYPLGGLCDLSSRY
Melanocortin receptor 5, sequence (P33032 whole entry): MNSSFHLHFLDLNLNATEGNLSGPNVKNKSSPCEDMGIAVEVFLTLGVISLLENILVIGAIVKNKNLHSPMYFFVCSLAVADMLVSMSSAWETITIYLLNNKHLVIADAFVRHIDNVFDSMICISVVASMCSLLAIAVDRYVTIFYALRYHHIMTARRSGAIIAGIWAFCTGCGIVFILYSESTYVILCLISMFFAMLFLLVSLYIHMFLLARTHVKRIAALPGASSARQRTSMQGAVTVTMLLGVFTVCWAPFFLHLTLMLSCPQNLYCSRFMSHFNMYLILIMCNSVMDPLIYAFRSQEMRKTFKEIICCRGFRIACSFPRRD
T1 sequence (P32245 whole entry): as the sequence (P32245 whole entry D122A) above, with A122D counted along it

Compound | pKi (Melanocortin receptor 4 [1]) | fold change (FC) (Homo sapiens) | pKi (Melanocortin receptor 3) | pKi (Melanocortin receptor 5) | pIC50 (Melanocortin receptor 4 [2]) | pKi (Melanocortin receptor 4 [3]) | inhibition [4] [%] | clearance [5] [mL/min/kg] | Vd [6] [L/kg] | half-life [7] [h] | Drug uptake (Brain) [ng/g] | Kp at 1 h [8] | bioavailability [9] [%] | AUC [10] [ng·h/mL] | logD [11] | CLint scaled [12] [mL/min/kg]
CNCC(=O)N[C@H](Cc1ccc(Cl)cc1Cl)C(=O)N1CCN(c2ccccc2C(=O)CC(C)C)CC1 | 6.54 | 9 |  |  |  | 7.51 |  |  |  |  |  |  |  |  |  | 
CC(C)CC(O)c1ccccc1N1CCN(C(=O)[C@@H](Cc2ccc(Cl)cc2Cl)NC(=O)CN(C)C)CC1 (some centres not stated) |  |  | 5.51 | 5.89 | 6.60 | 8.02 | 36 |  |  |  |  |  |  |  |  | 
CC(C)CC(=O)c1ccccc1N1CCN(C(=O)[C@@H](Cc2ccc(Cl)cc2Cl)NC(=O)CCN)CC1 |  |  | 5.64 | 6.48 | 6.19 | 7.62 | 42 |  |  |  |  |  |  |  | 2.4 | 18.4
CCC(O)(CC)c1ccccc1N1CCN(C(=O)[C@@H](Cc2ccc(Cl)cc2Cl)NC(=O)CN(C)C)CC1 |  |  | 5.51 | 6.02 | 6.40 | 8.03 | 34 |  |  |  |  |  |  |  |  | 
CCC(O)(CC)c1ccccc1N1CCN(C(=O)[C@@H](Cc2ccc(Cl)cc2Cl)NC(=O)C(C)(C)N)CC1 |  |  |  |  |  | 7.42 |  |  |  |  |  |  |  |  |  | 
CC(C)C[C@H](O)c1ccccc1N1CCN(C(=O)[C@@H](Cc2ccc(Cl)cc2Cl)NC(=O)CN)CC1 |  |  |  |  |  | 7.55 |  |  |  |  |  |  |  |  |  | 

Now those with a higher pKi (Melanocortin receptor 4 [3]), led by results:

pKi (Melanocortin receptor 4 [1]) | fold change (FC) (Homo sapiens) | pKi (Melanocortin receptor 3) | pKi (Melanocortin receptor 5) | pIC50 (Melanocortin receptor 4 [2]) | pKi (Melanocortin receptor 4 [3]) | inhibition [4] [%] | clearance [5] [mL/min/kg] | Vd [6] [L/kg] | half-life [7] [h] | Drug uptake (Brain) [ng/g] | Kp at 1 h [8] | bioavailability [9] [%] | AUC [10] [ng·h/mL] | logD [11] | CLint scaled [12] [mL/min/kg] | Compound
6.30 | 60 | 5.60 | 5.74 | 6.38 | 8.08 | 34 |  |  |  |  |  |  |  |  |  | CNCC(=O)N[C@H](Cc1ccc(Cl)cc1Cl)C(=O)N1CCN(c2ccccc2C(O)CC(C)C)CC1 (some centres not stated)
 |  | 5.77 | 6.01 | 6.59 | 8.09 |  | 64.5 | 42.3 | 7.6 | 117 | 0.53 | 1.2 | 30 | 2.2 | 14.7 | CC(C)CC(O)c1ccccc1N1CCN(C(=O)[C@@H](Cc2ccc(Cl)cc2Cl)NC(=O)CCN)CC1 (some centres not stated)
7.00 | 58 |  |  |  | 8.77 |  |  |  |  |  |  |  |  |  |  | CNCC(=O)N[C@H](Cc1ccc(Cl)cc1Cl)C(=O)N1CCN(c2ccccc2C(N)CC(C)C)CC1 (some centres not stated)
 |  | 6.06 | 6.27 | 6.60 | 8.49 |  | 68 | 41.5 | 7.1 | 245 | 1.8 | 2.1 |  | 0.15 | 3.6 | CC(C)CC(N)c1ccccc1N1CCN(C(=O)[C@@H](Cc2ccc(Cl)cc2Cl)NC(=O)CCN)CC1 (some centres not stated)
